Experimental data published in the NIST ThermoML archive (doi:10.1016/j.jct.2006.07.021).
Values joined by “and” are separate entries in the source; they are usually repeats but may differ in a detail not shown here. Equal entries are not always repeated. Numbers after ± are expanded uncertainties.

Test: xn = mol fraction of the nth substance listed
Settings: 101 kPa, Liquid, Pycnometric method

NC=O [formamide] + CCCO
mass density
Settings | 293.15 K | 298.15 K | 303.15 K | 308.15 K | 313.15 K | 318.15 K
x1 = 0.0557 | 814.02 ± 0.22 kg/m3 | 810.06 ± 0.22 kg/m3 | 806.09 ± 0.23 kg/m3 | 802.16 ± 0.24 kg/m3 | 798.22 ± 0.25 kg/m3 | 794.25 ± 0.26 kg/m3
x1 = 0.1172 | 826.05 ± 0.22 kg/m3 | 822.13 ± 0.23 kg/m3 | 818.2 ± 0.24 kg/m3 | 814.24 ± 0.25 kg/m3 | 810.33 ± 0.26 kg/m3 | 806.4 ± 0.27 kg/m3
x1 = 0.1854 | 840.26 ± 0.23 kg/m3 | 836.35 ± 0.23 kg/m3 | 832.44 ± 0.24 kg/m3 | 828.51 ± 0.25 kg/m3 | 824.6 ± 0.26 kg/m3 | 820.65 ± 0.27 kg/m3
x1 = 0.2615 | 857.42 ± 0.23 kg/m3 | 853.48 ± 0.24 kg/m3 | 849.54 ± 0.25 kg/m3 | 845.65 ± 0.26 kg/m3 | 841.72 ± 0.27 kg/m3 | 837.81 ± 0.28 kg/m3
x1 = 0.3469 | 878.23 ± 0.24 kg/m3 | 874.3 ± 0.25 kg/m3 | 870.42 ± 0.26 kg/m3 | 866.5 ± 0.27 kg/m3 | 862.58 ± 0.28 kg/m3 | 858.68 ± 0.29 kg/m3
x1 = 0.3912 | 889.89 ± 0.24 kg/m3 | 885.98 ± 0.25 kg/m3 | 882.06 ± 0.26 kg/m3 | 878.16 ± 0.27 kg/m3 | 874.26 ± 0.28 kg/m3 | 870.36 ± 0.29 kg/m3
x1 = 0.4434 | 904.36 ± 0.25 kg/m3 | 900.47 ± 0.26 kg/m3 | 896.54 ± 0.27 kg/m3 | 892.62 ± 0.28 kg/m3 | 888.72 ± 0.29 kg/m3 | 884.8 ± 0.3 kg/m3
x1 = 0.4986 | 920.67 ± 0.25 kg/m3 | 916.75 ± 0.26 kg/m3 | 912.83 ± 0.27 kg/m3 | 908.96 ± 0.28 kg/m3 | 905.05 ± 0.29 kg/m3 | 901.16 ± 0.3 kg/m3
x1 = 0.5534 | 937.91 ± 0.26 kg/m3 | 934.03 ± 0.27 kg/m3 | 930.12 ± 0.28 kg/m3 | 926.2 ± 0.29 kg/m3 | 922.32 ± 0.3 kg/m3 | 918.42 ± 0.31 kg/m3
x1 = 0.6216 | 961.03 ± 0.27 kg/m3 | 957.12 ± 0.28 kg/m3 | 953.23 ± 0.29 kg/m3 | 949.33 ± 0.3 kg/m3 | 945.41 ± 0.31 kg/m3 | 941.54 ± 0.32 kg/m3
x1 = 0.68 | 982.32 ± 0.28 kg/m3 | 978.44 ± 0.29 kg/m3 | 974.57 ± 0.3 kg/m3 | 970.66 ± 0.31 kg/m3 | 966.78 ± 0.32 kg/m3 | 962.88 ± 0.32 kg/m3
x1 = 0.7535 | 1011.59 ± 0.29 kg/m3 | 1007.72 ± 0.3 kg/m3 | 1003.81 ± 0.31 kg/m3 | 999.91 ± 0.32 kg/m3 | 996.03 ± 0.33 kg/m3 | 992.15 ± 0.34 kg/m3
x1 = 0.827 | 1043.7 ± 0.3 kg/m3 | 1039.83 ± 0.31 kg/m3 | 1035.95 ± 0.32 kg/m3 | 1032.06 ± 0.33 kg/m3 | 1028.21 ± 0.34 kg/m3 | 1024.36 ± 0.35 kg/m3
x1 = 0.8832 | 1070.44 ± 0.31 kg/m3 | 1066.54 ± 0.32 kg/m3 | 1062.68 ± 0.33 kg/m3 | 1058.82 ± 0.34 kg/m3 | 1054.92 ± 0.35 kg/m3 | 1051.03 ± 0.36 kg/m3
x1 = 0.9328 | 1095.56 ± 0.32 kg/m3 | 1091.65 ± 0.33 kg/m3 | 1087.74 ± 0.34 kg/m3 | 1083.81 ± 0.35 kg/m3 | 1079.91 ± 0.36 kg/m3 | 1075.97 ± 0.37 kg/m3
x1 = 1 | – | 1133 ± 0.34 kg/m3 and 1129 ± 0.33 kg/m3 | 1125 ± 0.34 kg/m3 | 1121 ± 0.35 kg/m3 | 1117 ± 0.36 kg/m3 | 1113 ± 0.37 kg/m3

CCO [ethanol] + NC=O
x2 = 0
Settings | mass density [kg/m3]
293.15 K | 789.46 ± 0.2
298.15 K | 785.2 ± 0.21
303.15 K | 780.75 ± 0.22
308.15 K | 776.42 ± 0.23
313.15 K | 771.81 ± 0.24
318.15 K | 767.38 ± 0.25

CC(O)CO (stereo not drawn) [1,2-propanediol] + NC=O
x2 = 0
Settings | mass density [kg/m3]
293.15 K | 1036.38 ± 0.35
298.15 K | 1032.76 ± 0.36
303.15 K | 1029.14 ± 0.37
308.15 K | 1025.52 ± 0.38
313.15 K | 1021.9 ± 0.39
318.15 K | 1018.28 ± 0.4

NC=O [formamide] + OCCO
mass density [kg/m3]
Settings | 293.15 K | 298.15 K | 303.15 K | 308.15 K | 313.15 K | 318.15 K
x1 = 0.0612 | 1114.13 ± 0.33 | 1110.54 ± 0.34 | 1106.94 ± 0.35 | 1103.38 ± 0.36 | 1099.81 ± 0.37 | 1096.21 ± 0.38
x1 = 0.1204 | 1114.54 ± 0.33 | 1110.93 ± 0.34 | 1107.31 ± 0.35 | 1103.66 ± 0.36 | 1100.06 ± 0.37 | 1096.44 ± 0.38
x1 = 0.1859 | 1115.04 ± 0.33 | 1111.39 ± 0.34 | 1107.74 ± 0.35 | 1104.07 ± 0.36 | 1100.42 ± 0.37 | 1096.73 ± 0.38
x1 = 0.2524 | 1115.55 ± 0.33 | 1111.84 ± 0.34 | 1108.13 ± 0.35 | 1104.47 ± 0.36 | 1100.77 ± 0.37 | 1097.09 ± 0.38
x1 = 0.3302 | 1116.11 ± 0.32 | 1112.36 ± 0.33 | 1108.66 ± 0.34 | 1104.92 ± 0.35 | 1101.18 ± 0.36 | 1097.46 ± 0.37
x1 = 0.3926 | 1116.61 ± 0.32 | 1112.86 ± 0.33 | 1109.1 ± 0.34 | 1105.36 ± 0.35 | 1101.62 ± 0.36 | 1097.88 ± 0.37
x1 = 0.4517 | 1117.2 ± 0.32 | 1113.44 ± 0.33 | 1109.64 ± 0.34 | 1105.85 ± 0.35 | 1102.08 ± 0.36 | 1098.29 ± 0.37
x1 = 0.5102 | 1117.85 ± 0.32 | 1114.01 ± 0.33 | 1110.17 ± 0.34 | 1106.38 ± 0.35 | 1102.55 ± 0.36 | 1098.74 ± 0.37
x1 = 0.5643 | 1118.48 ± 0.32 | 1114.66 ± 0.33 | 1110.81 ± 0.34 | 1106.95 ± 0.35 | 1103.13 ± 0.36 | 1099.29 ± 0.37
x1 = 0.6101 | 1119.18 ± 0.32 | 1115.31 ± 0.33 | 1111.46 ± 0.34 | 1107.6 ± 0.35 | 1103.72 ± 0.36 | 1099.89 ± 0.37
x1 = 0.6596 | 1120.09 ± 0.32 | 1116.22 ± 0.33 | 1112.36 ± 0.34 | 1108.46 ± 0.35 | 1104.59 ± 0.36 | 1100.7 ± 0.37
x1 = 0.7454 | 1122.11 ± 0.32 | 1118.19 ± 0.33 | 1114.23 ± 0.34 | 1110.28 ± 0.35 | 1106.35 ± 0.36 | 1102.42 ± 0.37
x1 = 0.8195 | 1124.35 ± 0.32 | 1120.37 ± 0.33 | 1116.38 ± 0.34 | 1112.38 ± 0.35 | 1108.42 ± 0.36 | 1104.46 ± 0.37
x1 = 0.8883 | 1127.02 ± 0.32 | 1122.99 ± 0.33 | 1119 ± 0.34 | 1115.01 ± 0.35 | 1110.98 ± 0.36 | 1106.96 ± 0.37
x1 = 0.9491 | 1130.03 ± 0.32 | 1125.99 ± 0.33 | 1121.95 ± 0.34 | 1117.89 ± 0.35 | 1113.86 ± 0.36 | 1109.79 ± 0.37
x1 = 1 | 1133 ± 0.32 | 1129 ± 0.33 | 1125 ± 0.34 | 1121 ± 0.35 | 1117 ± 0.36 | 1113 ± 0.37
